Measurements reported in ChEMBL document CHEMBL5154661, “Novel 2-phenyl-3-(Pyridin-2-yl) thiazolidin-4-one derivatives as potent inhibitors for proliferation of osteosarcoma cells in vitro and in vivo” (Eur J Med Chem, 2022).
The source made the active and inactive calls. The rule behind the calls is not given here.

How the values were obtained:
[1] = Toxicity in ICR mouse at 800 mg/kg, ip; type: organism-based; conditions: in vivo
[2] = Half life in male ICR mouse at 62.5 mg/kg, ip measured upto 24 hrs by LC-MS/MS analysis; type: ADME, organism-based; conditions: in vivo
HOS-TE85 [3] = assay: Antiproliferative activity against human MNNG/HOS cells assessed as cell growth inhibition measured after 72 hrs by CCK-8 assay; type: functional, cell-based; conditions: HOS-TE85, 72 h
U2OS = assay: Antiproliferative activity against human U2OS cells assessed as cell growth inhibition measured after 72 hrs by CCK-8 assay; type: functional, cell-based
143B = assay: Antiproliferative activity against human 143B cells assessed as cell growth inhibition measured after 72 hrs by CCK-8 assay; type: functional, cell-based
SW1353 = assay: Antiproliferative activity against human SW1353 cells assessed as cell growth inhibition measured after 72 hrs by CCK-8 assay; type: functional, cell-based; conditions: SW1353, 72 h
HOS = assay: Antiproliferative activity against human HOS cells assessed as cell growth inhibition measured after 72 hrs by CCK-8 assay; type: functional, cell-based
SJSA-1 [4] = assay: Antiproliferative activity against human SJSA-1 cells assessed as cell growth inhibition measured after 72 hrs by CCK-8 assay; type: functional, cell-based; conditions: SJSA-1, 72 h
MG-63 [5] = assay: Antiproliferative activity against human MG-63 cells assessed as cell growth inhibition measured after 72 hrs by CCK-8 assay; type: functional, cell-based; conditions: MG-63, 72 h
SAOS-2 = assay: Antiproliferative activity against human SAOS-2 cells assessed as growth inhibition measured after 72 hrs by CCK-8 assay; type: functional, cell-based; conditions: SAOS-2, 72 h
[6] = Cytotoxicity against human BMSC cells assessed as growth inhibition measured after 72 hrs by CCK-8 assay; type: toxicity, cell-based, HBMSC
[7] = Cytotoxicity against human GES1 cells assessed as growth inhibition measured after 72 hrs by CCK-8 assay; type: toxicity, cell-based
[8] = Half life in male ICR mouse at 12.5 mg/kg, iv measured upto 24 hrs by LC-MS/MS analysis; type: ADME, organism-based; conditions: in vivo
[9] = AUC(0 to infinity) in male ICR mouse at 12.5 mg/kg, iv measured upto 24 hrs by LC-MS/MS analysis; type: ADME, organism-based; design: time < 24 hrs, dose 12.5 mg/kg, route iv; conditions: in vivo
[10] = Plasma clearance in male ICR mouse at 12.5 mg/kg, iv measured upto 24 hrs by LC-MS/MS analysis; type: ADME, organism-based
[11] = Cmax in male ICR mouse at 62.5 mg/kg, ip measured upto 24 hrs by LC-MS/MS analysis; type: ADME, organism-based; design: dose 62.5 mg/kg, time < 24 hrs, route ip; conditions: in vivo
[12] = AUC(0 to infinity) in male ICR mouse at 62.5 mg/kg, ip measured upto 24 hrs by LC-MS/MS analysis; type: ADME, organism-based; design: dose 62.5 mg/kg, time < 24 hrs, route ip; conditions: in vivo
[13] = Bioavailability in male ICR mouse at 62.5 mg/kg, ip measured upto 24 hrs by LC-MS/MS analysis; type: ADME, organism-based; conditions: in vivo
SJSA-1 [14] = assay: Antiproliferative activity against human SJSA-1 cells with increase MYOF expression assessed as cell growth inhibition incubated for 72 hrs by CCK-8 assay; type: functional, cell-based; conditions: SJSA-1, 72 h
MG-63 [15] = assay: Antiproliferative activity against human MG-63 cells with increase MYOF expression assessed as cell growth inhibition incubated for 72 hrs by CCK-8 assay; type: functional, cell-based; conditions: MG-63, 72 h
HOS-TE85 [16] = assay: Antiproliferative activity against human MNNG/HOS cells with increase MYOF expression assessed as cell growth inhibition incubated for 72 hrs by CCK-8 assay; type: functional, cell-based; conditions: HOS-TE85, 72 h
HOS-TE85 [17] = assay: Antiproliferative activity against human MNNG/HOS cells with low MYOF expression assessed as cell growth inhibition incubated for 72 hrs by CCK-8 assay; type: functional, cell-based; conditions: HOS-TE85, 72 h
K562 = assay: Antiproliferative activity against human K562 cells with low MYOF expression assessed as cell growth inhibition incubated for 72 hrs by CCK-8 assay; type: functional, cell-based; conditions: K562, 72 h
HL-60 = assay: Antiproliferative activity against human HL-60 cells with low MYOF expression assessed as cell growth inhibition incubated for 72 hrs by CCK-8 assay; type: functional, cell-based; conditions: HL-60, 72 h
HOS-TE85 [18] = assay: Cell cycle arrest at human MNNG/HOS cells assessed as accumulation at G0/G1 phase at 5 uM measured after 24 hrs by propidium iodide staining based flow cytometry(Rvb=37.12%); type: functional
HOS-TE85 [19] = assay: Cell cycle arrest at human MNNG/HOS cells assessed as accumulation at S phase at 5 uM measured after 24 hrs by propidium iodide staining based flow cytometry(Rvb=38.9%); type: functional
HOS-TE85 [20] = assay: Cell cycle arrest in human MNNG/HOS cells assessed as accumulation at G2/M phase at 5 uM measured after 24 hrs by propidium iodide staining based flow cytometry(Rvb=21.2%); type: functional
HOS-TE85 [21] = assay: Inhibition of cell migration in human MNNG/HOS cells at 20 nM measured after 24 hrs by wound healing assay relative to control; type: functional
HOS-TE85 [22] = assay: Inhibition of cell migration in human MNNG/HOS cells at 5 nM measured after 24 hrs by transwell assay; type: functional
HOS-TE85 [23] = assay: Antitumor activity against human MNNG/HOS cells xenografted in female BALB/c nude mouse assessed as tumor growth inhibition at 62.5 mg/kg, ip administered twice per day for 18 days relative to control; type: functional; conditions: HOS-TE85, 432 h, time 18 day, read-out: TGI
[24] = Toxicity in BALB/c nude mouse xenografted with human MNNG/HOS cells assessed as body weight loss at 62.5 mg/kg, ip administered twice per day for 18 days; type: organism-based, HOS-TE85; conditions: in vivo, 432 h, time 18 day
HOS-TE85 [25] = assay: Antitumor activity against human MNNG/HOS cells xenografted in BALB/c nude mouse assessed as reduction in tumor weight at 62.5 mg/kg, ip administered twice per day for 18 days; type: functional, organism-based; conditions: time 18.0 day
[26] = Toxicity in BALB/c nude mouse xenografted with human MNNG/HOS cells assessed as effect on heart morphology by H and E staining assay at 62.5 mg/kg, ip administered twice per day for 18 days; type: organism-based, HOS-TE85; conditions: in vivo, 432 h, time 18 day
[27] = Toxicity in BALB/c nude mouse xenografted with human MNNG/HOS cells assessed as effect on liver morphology by H and E staining assay at 62.5 mg/kg, ip administered twice per day for 18 days; type: organism-based, HOS-TE85; conditions: in vivo, 432 h, time 18 day
[28] = Toxicity in BALB/c nude mouse xenografted with human MNNG/HOS cells assessed as effect on kidney morphology by H and E staining assay at 62.5 mg/kg, ip administered twice per day for 18 days; type: organism-based, HOS-TE85; conditions: in vivo, 432 h, time 18 day
[29] = Toxicity in BALB/c nude mouse xenografted with human MNNG/HOS cells assessed as effect on spleen morphology by H and E staining assay at 62.5 mg/kg, ip administered twice per day for 18 days; type: organism-based, HOS-TE85; conditions: in vivo, 432 h, time 18 day
[30] = Toxicity in ICR mouse at 300 mg/kg, ip administered daily for a week; type: organism-based; conditions: in vivo
[31] = Toxicity in BALB/c nude mouse xenografted with human MNNG/HOS cells assessed as effect on ratio of heart weight to body weight at 62.5 mg/kg, ip administered twice per day for 18 days; type: organism-based, HOS-TE85; conditions: in vivo, 432 h, time 18 day
[32] = Toxicity in BALB/c nude mouse xenografted with human MNNG/HOS cells assessed as effect on ratio of liver weight to body weight at 62.5 mg/kg, ip administered twice per day for 18 days; type: organism-based, HOS-TE85; conditions: in vivo, 432 h, time 18 day
[33] = Toxicity in BALB/c nude mouse xenografted with human MNNG/HOS cells assessed as effect on ratio of kidney weight to body weight at 62.5 mg/kg, ip administered twice per day for 18 days; type: organism-based, HOS-TE85; conditions: in vivo, 432 h, time 18 day
[34] = Toxicity in BALB/c nude mouse xenografted with human MNNG/HOS cells assessed as effect on ratio of spleen weight to body weight at 62.5 mg/kg, ip administered twice per day for 18 days; type: organism-based, HOS-TE85; conditions: in vivo, 432 h, time 18 day
[35] = Drug distribution in plasma of BALB/c nude mouse xenografted with human MNNG/HOS cells at 62.5 mg/kg,ip measured after 12 hrs; type: ADME, organism-based, HOS-TE85
[36] = Drug distribution in tumor of BALB/c nude mouse xenografted with human MNNG/HOS cells at 62.5 mg/kg,ip measured after 12 hrs; type: ADME, organism-based, Neoplasm, HOS-TE85; conditions: read-out: Ct
[37] = Half life in male ICR mouse at 5 mg/kg, iv measured upto 24 hrs by LC-MS/MS analysis; type: ADME, organism-based; conditions: in vivo
[38] = Oral bioavailability in male ICR mouse at 25 mg/kg measured upto 24 hrs by LC-MS/MS analysis; type: ADME, organism-based; conditions: in vivo

Cc1ccnc(N2C(=O)CS[C@@H]2c2cccc(C(=O)NCCCCn3cccn3)c2)c1
Activity [1]: Non-Toxic | half-life [2]: 38.5 min | IC50 (HOS-TE85 [3]): 21.9 nM | IC50 (U2OS): 26.5 nM | IC50 (143B): 29.5 nM | IC50 (SW1353): 19.9 nM | IC50 (HOS): 50.9 nM | IC50 (SJSA-1 [4]): 62.2 nM | IC50 (MG-63 [5]): 14.9 nM | IC50 (SAOS-2): 26.8 nM | IC50 at 72 h [6]: > 10000 nM | IC50 at 72 h [7]: > 20000 nM | half-life [8]: 3.66 min | AUC(0-inf) [9]: 3230 ng·h/mL | clearance [10]: 66.9 mL/min/kg | Cmax [11]: 20500 ng/mL | AUC(0-inf) [12]: 8410 ng·h/mL | bioavailability [13]: 52.1% | IC50 (SJSA-1 [14]): 62.2 nM | IC50 (MG-63 [15]): 14.9 nM | IC50 (HOS-TE85 [16]): 31.6 nM | IC50 (HOS-TE85 [17]): 35.2 nM | IC50 (K562): 28.1 nM | IC50 (HL-60): 19 nM | Activity (HOS-TE85 [18]): 59.69% | Activity (HOS-TE85 [19]): 30.1% | Activity (HOS-TE85 [20]): 10.21% | inhibition at 0.02 µM (HOS-TE85 [21]): 50% | inhibition at 0.005 µM (HOS-TE85 [22]): 60% | inhibition in vivo at 62.5 mg/kg (HOS-TE85 [23]): 52.9% | Activity [24]: Non-Toxic | Activity (HOS-TE85 [25]): Active | Activity [26]: Non-Toxic | Activity [27]: Non-Toxic | Activity [28]: Non-Toxic | Activity [29]: Non-Toxic | Activity [30]: Non-Toxic | Activity [31]: Non-Toxic | Activity [32]: Non-Toxic | Activity [33]: Non-Toxic | Activity [34]: Non-Toxic | concentration at 12 h [35]: 55.5 nM | concentration at 12 h [36]: 110 nM | half-life [37]: 23.4 min | bioavailability [38]: 0.36%
